The molecules below were run against T1, F508del (Homo sapiens, UniProt P13569, DEL508-508) (assay: Protocol 2: FRET membrane potential optical assay (VIPR), identification of correction compounds). Conditions: F508del CFTR modulator activity; compounds of Table 1; read-out: EC30.
T1 construct: expressed in transfected cells
Assay type: cell-based
How it was run: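 NIH3T3 mouse fibroblasts stably expressing F508del-CFTR incubated with compound 16 h at 37 °C in serum-free medium, then loaded with CC2-DMPE/DiSBAC2(3) FRET dyes. Channel activated with 10 μM forskolin plus 20 μM genistein in Cl⁻-free (gluconate) bath; depolarisation from Cl⁻ efflux read on VIPR II.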

T1 sequence (P13569 with tags, fused parts or gaps DEL508-508): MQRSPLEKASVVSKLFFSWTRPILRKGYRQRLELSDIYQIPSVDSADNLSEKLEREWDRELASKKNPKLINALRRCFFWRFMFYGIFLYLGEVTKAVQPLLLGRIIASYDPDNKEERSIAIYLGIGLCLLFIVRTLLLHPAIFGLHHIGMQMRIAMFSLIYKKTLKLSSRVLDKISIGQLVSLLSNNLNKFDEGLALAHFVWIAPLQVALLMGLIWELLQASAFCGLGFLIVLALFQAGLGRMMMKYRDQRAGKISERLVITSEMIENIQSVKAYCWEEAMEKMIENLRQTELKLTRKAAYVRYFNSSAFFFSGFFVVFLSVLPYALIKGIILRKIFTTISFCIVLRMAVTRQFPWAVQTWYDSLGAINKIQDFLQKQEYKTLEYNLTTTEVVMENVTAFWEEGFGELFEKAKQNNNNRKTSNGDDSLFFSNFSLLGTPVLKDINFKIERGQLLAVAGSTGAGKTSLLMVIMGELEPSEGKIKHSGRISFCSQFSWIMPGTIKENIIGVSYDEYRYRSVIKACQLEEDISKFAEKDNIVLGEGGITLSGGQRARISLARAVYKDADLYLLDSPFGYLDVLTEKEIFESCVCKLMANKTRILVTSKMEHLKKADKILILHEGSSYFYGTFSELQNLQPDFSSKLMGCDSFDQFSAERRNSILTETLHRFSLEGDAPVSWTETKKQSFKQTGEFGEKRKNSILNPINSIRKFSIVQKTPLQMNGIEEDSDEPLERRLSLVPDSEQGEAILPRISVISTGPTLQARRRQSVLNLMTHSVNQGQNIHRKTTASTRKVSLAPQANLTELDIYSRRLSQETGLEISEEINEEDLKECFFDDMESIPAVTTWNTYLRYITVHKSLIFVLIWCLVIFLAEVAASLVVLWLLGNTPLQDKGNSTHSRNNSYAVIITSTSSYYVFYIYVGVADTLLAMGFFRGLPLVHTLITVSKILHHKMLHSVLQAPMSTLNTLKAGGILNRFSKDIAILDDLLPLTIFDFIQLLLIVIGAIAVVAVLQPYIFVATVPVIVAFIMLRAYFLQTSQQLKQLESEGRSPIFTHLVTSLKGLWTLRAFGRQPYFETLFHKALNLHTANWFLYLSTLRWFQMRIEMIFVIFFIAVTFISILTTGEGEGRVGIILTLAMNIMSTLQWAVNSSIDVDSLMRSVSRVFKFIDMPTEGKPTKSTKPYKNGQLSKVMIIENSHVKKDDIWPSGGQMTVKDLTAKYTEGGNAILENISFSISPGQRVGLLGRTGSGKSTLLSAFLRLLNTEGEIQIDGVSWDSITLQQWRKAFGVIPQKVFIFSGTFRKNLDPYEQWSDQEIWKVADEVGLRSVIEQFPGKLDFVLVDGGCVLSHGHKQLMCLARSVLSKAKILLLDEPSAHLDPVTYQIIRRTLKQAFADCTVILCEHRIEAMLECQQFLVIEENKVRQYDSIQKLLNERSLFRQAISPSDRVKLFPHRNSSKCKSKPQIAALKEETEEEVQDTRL

| SMILES | EC30 [µM] |
| --- | --- |
| Cc1c(F)cccc1-c1ccc(C(=O)NS(=O)(=O)c2ccc[nH]c2=O)c(N2C[C@@H](C)CC2(C)C)n1 [Compound 2491, 6-(3-fluoro-2-methyl-phenyl)-N-[(2-oxo-1H-pyridin-3-yl)sulfonyl]-2-[(4S)-2,2,4-trimethylpyrrolidin-1-yl]pyridine-3-carboxamide] | < 3 |
| COc1c(F)cc(F)cc1-c1ccc(C(=O)NS(=O)(=O)c2ccc[nH]c2=O)c(N2C[C@@H](C)CC2(C)C)n1 [Compound 2496, 6-(3,5-difluoro-2-methoxy-phenyl)-N-[(2-oxo-1H-pyridin-3-yl)sulfonyl]-2-[(4S)-2,2,4-trimethylpyrrolidin-1-yl]pyridine-3-carboxamide] | < 3 |
| CCOCCOc1ncc(-c2ccc(C(=O)NS(=O)(=O)c3cccnc3N)c(N3C[C@@H](C)CC3(C)C)n2)cc1C [Compound 2497, N-[(2-amino-3-pyridyl)sulfonyl]-6-[6-(2-ethoxyethoxy)-5-methyl-3-pyridyl]-2-[(4S)-2,2,4-trimethylpyrrolidin-1-yl]pyridine-3-carboxamide] | < 3 |
| CC(C)c1cccc(-c2ccc(C(=O)NS(=O)(=O)c3ccc[nH]c3=O)c(N3C[C@@H](C)CC3(C)C)n2)c1 [Compound 2498, 6-(3-isopropylphenyl)-N-[(2-oxo-1H-pyridin-3-yl)sulfonyl]-2-[(4S)-2,2,4-trimethylpyrrolidin-1-yl]pyridine-3-carboxamide] | < 3 |
| C[C@@H]1CN(c2nc(-c3cccc(NCC(C)(C)C)n3)ccc2C(=O)NS(=O)(=O)c2cccnc2N)C(C)(C)C1 [Compound 2500, N-[(2-amino-3-pyridyl)sulfonyl]-6-[6-(2,2-dimethylpropylamino)-2-pyridyl]-2-[(4S)-2,2,4-trimethylpyrrolidin-1-yl]pyridine-3-carboxamide] | < 3 |
| CC(Oc1ncccc1C(=O)NS(=O)(=O)c1cccc(N)n1)c1ccccc1C(F)(F)F (stereo not drawn) [Compound 2501] | 3 to 10 |
| Cc1cc(F)cc(-c2ccc(C(=O)NS(=O)(=O)c3cccnc3N)c(N3C[C@@H](C)CC3(C)C)n2)c1 [Compound 2505, N-[(2-amino-3-pyridyl)sulfonyl]-6-(3-fluoro-5-methyl-phenyl)-2-[(4S)-2,2,4-trimethylpyrrolidin-1-yl]pyridine-3-carboxamide] | < 3 |
| CC(C)COc1cc(F)cc(-c2ccc(C(=O)NS(=O)(=O)N3CC(O)CC(F)(F)C3)c(N3C[C@@H](C)CC3(C)C)n2)c1 (stereo partly drawn) [Compound 2508, N-[(3,3-difluoro-5-hydroxy-1-piperidyl)sulfonyl]-6-(3-fluoro-5-isobutoxy-phenyl)-2-[(4S)-2,2,4-trimethylpyrrolidin-1-yl]pyridine-3-carboxamide] | < 3 |
| CCOc1cc(C)cc(-c2ccc(C(=O)NS(=O)(=O)c3cccc(N)n3)c(Oc3c(C)cc(C)cc3C)n2)n1 [Compound 2511, N-[(6-amino-2-pyridyl)sulfonyl]-6-(6-ethoxy-4-methyl-2-pyridyl)-2-(2,4,6-trimethylphenoxy)pyridine-3-carboxamide] | < 3 |
| CCOc1cc(C)cc(-c2ccc(C(=O)NS(=O)(=O)c3ccc[nH]c3=O)c(N3C[C@@H](C)CC3(C)C)n2)c1 [Compound 2512, 6-(3-ethoxy-5-methyl-phenyl)-N-[(2-oxo-1H-pyridin-3-yl)sulfonyl]-2-[(4S)-2,2,4-trimethylpyrrolidin-1-yl]pyridine-3-carboxamide] | < 3 |
| C[C@@H]1CN(c2nc(-c3ccccc3OC(F)(F)F)ccc2C(=O)NS(=O)(=O)c2ccc[nH]c2=O)C(C)(C)C1 [Compound 2514, N-[(2-oxo-1H-pyridin-3-yl)sulfonyl]-6-[2-(trifluoromethoxy)phenyl]-2-[(4S)-2,2,4-trimethylpyrrolidin-1-yl]pyridine-3-carboxamide] | < 3 |
| C[C@@H]1CN(c2nc(-c3ccc4c(c3)OCCO4)ccc2C(=O)NS(=O)(=O)c2ccc[nH]c2=O)C(C)(C)C1 [Compound 2516, 6-(2,3-dihydro-1,4-benzodioxin-6-yl)-N-[(2-oxo-1H-pyridin-3-yl)sulfonyl]-2-[(4S)-2,2,4-trimethylpyrrolidin-1-yl]pyridine-3-carboxamide] | 3 to 10 |
| C[C@@H]1CN(c2nc(C(C)(C)C)c(C3=CCN(C(=O)NC4CCCCC4)CC3)cc2C(=O)NS(=O)(=O)c2cccc(N)n2)C(C)(C)C1 [Compound 2520, N-[(6-amino-2-pyridyl)sulfonyl]-6-tert-butyl-5-[1-(cyclohexylcarbamoyl)-3,6-dihydro-2H-pyridin-4-yl]-2-[(4S)-2,2,4-trimethylpyrrolidin-1-yl]pyridine-3-carboxamide] | 3 to 10 |

Further lines, results first:

| EC30 [µM] | SMILES |
| --- | --- |
| < 3 | COC(=O)c1cccc(Nc2cccc(S(=O)(=O)NC(=O)c3cccnc3N3CC(C)CC3(C)C)n2)c1 (stereo not drawn) [Compound 2493, methyl 3-[[6-[[2-(2,2,4-trimethylpyrrolidin-1-yl)pyridine-3-carbonyl]sulfamoyl]-2-pyridyl]amino]benzoate] |
| < 3 | COc1ccc(-c2ccc(C(=O)NS(=O)(=O)c3cccnc3N)c(N3C[C@@H](C)CC3(C)C)n2)c(C)c1 [Compound 2494, N-[(2-amino-3-pyridyl)sulfonyl]-6-(4-methoxy-2-methyl-phenyl)-2-[(4S)-2,2,4-trimethylpyrrolidin-1-yl]pyridine-3-carboxamide] |
| < 3 | CC1CN(c2ncccc2C(=O)NS(=O)(=O)c2cccc(NCCC(=O)OC(C)(C)C)n2)C(C)(C)C1 (stereo not drawn) [Compound 2495, tert-butyl 3-[[6-[[2-(2,2,4-trimethylpyrrolidin-1-yl)pyridine-3-carbonyl]sulfamoyl]-2-pyridyl]amino]propanoate] |
| < 3 | COc1cc(C)cc(-c2cnc(N3CC(C)CC3(C)C)c(C(=O)NS(=O)(=O)c3cccc(N)n3)c2)c1 (stereo not drawn) [Compound 2499, N-[(6-amino-2-pyridyl)sulfonyl]-5-(3-methoxy-5-methyl-phenyl)-2-(2,2,4-trimethylpyrrolidin-1-yl)pyridine-3-carboxamide] |
| < 3 | Cc1ccc(CCNc2cccc(S(=O)(=O)NC(=O)c3cccnc3N3CC(C)CC3(C)C)n2)cc1 (stereo not drawn) [Compound 2502, N—[[6-[2-(p-tolyl)ethylamino]-2-pyridyl]sulfonyl]-2-(2,2,4-trimethylpyrrolidin-1-yl)pyridine-3-carboxamide] |
| < 3 | COc1ccc(Cl)cc1Oc1cccc(S(=O)(=O)NC(=O)c2cccnc2N2CC(C)CC2(C)C)n1 (stereo not drawn) [Compound 2503, N—[[6-(5-chloro-2-methoxy-phenoxy)-2-pyridyl]sulfonyl]-2-(2,2,4-trimethylpyrrolidin-1-yl)pyridine-3-carboxamide] |
| 3 to 10 | CC1CN(c2ncccc2C(=O)NS(=O)(=O)c2cccc(N3CCN(Cc4ccccn4)CC3)n2)C(C)(C)C1 (stereo not drawn) [Compound 2504, N—[[6-[4-(2-pyridylmethyl)piperazin-1-yl]-2-pyridyl]sulfonyl]-2-(2,2,4-trimethylpyrrolidin-1-yl)pyridine-3-carboxamide] |
| 3 to 10 | COC(=O)N1CCN(c2cccc(S(=O)(=O)NC(=O)c3cccnc3N3CC(C)CC3(C)C)n2)CC1 (stereo not drawn) [Compound 2506, methyl 4-[6-[[2-(2,2,4-trimethylpyrrolidin-1-yl)pyridine-3-carbonyl]sulfamoyl]-2-pyridyl]piperazine-1-carboxylate] |
| < 3 | CC1CN(c2ncccc2C(=O)NS(=O)(=O)c2cccc(OCc3ccoc3)n2)C(C)(C)C1 (stereo not drawn) [Compound 2507, N—[[6-(3-furylmethoxy)-2-pyridyl]sulfonyl]-2-(2,2,4-trimethylpyrrolidin-1-yl)pyridine-3-carboxamide] |
| < 3 | CC1CN(c2ncccc2C(=O)NS(=O)(=O)c2cccc(Oc3ccccc3)n2)C(C)(C)C1 (stereo not drawn) [Compound 2509, N-[(6-phenoxy-2-pyridyl)sulfonyl]-2-(2,2,4-trimethylpyrrolidin-1-yl)pyridine-3-carboxamide] |
| < 3 | CC1CN(c2ncc(C3=CCC(C(F)(F)F)CC3)cc2C(=O)NS(=O)(=O)c2cccc(N)n2)C(C)(C)C1 (stereo not drawn) [Compound 2510, N-[(6-amino-2-pyridyl)sulfonyl]-5-[4-(trifluoromethyl)cyclohexen-1-yl]-2-(2,2,4-trimethylpyrrolidin-1-yl)pyridine-3-carboxamide] |
| 3 to 10 | CC1CN(c2ncccc2C(=O)NS(=O)(=O)c2cccc(Nc3c(F)cccc3F)n2)C(C)(C)C1 (stereo not drawn) [Compound 2513, N—[[6-(2,6-difluoroanilino)-2-pyridyl]sulfonyl]-2-(2,2,4-trimethylpyrrolidin-1-yl)pyridine-3-carboxamide] |
| < 3 | CC(C)Oc1cccc(-c2ccc(C(=O)NS(=O)(=O)c3cccnc3N)c(N3C[C@@H](C)CC3(C)C)n2)c1 [Compound 2515, N-[(2-amino-3-pyridyl)sulfonyl]-6-(3-isopropoxyphenyl)-2-[(4S)-2,2,4-trimethylpyrrolidin-1-yl]pyridine-3-carboxamide] |
| < 3 | CC1CN(c2ncccc2C(=O)NS(=O)(=O)c2cccc(Nc3cccc(N(C)C)c3)n2)C(C)(C)C1 (stereo not drawn) [Compound 2517, N—[[6-[3-(dimethylamino)anilino]-2-pyridyl]sulfonyl]-2-(2,2,4-trimethylpyrrolidin-1-yl)pyridine-3-carboxamide] |
| < 3 | CC1CN(c2ncccc2C(=O)NS(=O)(=O)c2cccc(N3CCc4ccc(F)cc4C3)n2)C(C)(C)C1 (stereo not drawn) [Compound 2518, N—[[6-(7-fluoro-3,4-dihydro-1H-isoquinolin-2-yl)-2-pyridyl]sulfonyl]-2-(2,2,4-trimethylpyrrolidin-1-yl)pyridine-3-carboxamide] |
| < 3 | Cc1ccc2cc(C(=O)NS(=O)(=O)c3cccc(N)n3)c(N3C[C@@H](C)CC3(C)C)nc2c1 [Compound 2519, N-[(6-amino-2-pyridyl)sulfonyl]-7-methyl-2-[(4S)-2,2,4-trimethylpyrrolidin-1-yl]quinoline-3-carboxamide] |
| < 3 | CC1CN(c2ncc(-c3ccc(C(C)(C)C#N)cc3)cc2C(=O)NS(=O)(=O)c2cccc(N)n2)C(C)(C)C1 (stereo not drawn) [Compound 2521, N-[(6-amino-2-pyridyl)sulfonyl]-5-[4-(1-cyano-1-methyl-ethyl)phenyl]-2-(2,2,4-trimethylpyrrolidin-1-yl)pyridine-3-carboxamide] |
